Source: patent US12251382B2, “Substituted amino-pyrimidine compound for use in a method for treatment and prevention of multiple sclerosis” (Merck Patent GmbH, priority 2018, dated 2025)
Entries after “also recorded” stand apart in the source; their conditions may differ.

What was measured:
[1] = Phase II RMS study: safety (adverse events, laboratory) over 24 weeks; type: in vivo
Description: The assessing Investigator and central MRI reader were treatment blinded.
Safety profile of the IMP was assessed through the recording, reporting and analysis of baseline medical conditions; AEs; physical examination findings including vital signs, ECGs, and laboratory tests (including Ig and subclass concentration and B, NK, and T cell counts). Comprehensive assessment of any apparent toxicity experienced by each subject was performed from the time of giving informed consent and throughout the trial. The Investigator was to report any AEs, whether observed by the Investigator or reported by the subject.
Adverse Event: An AE was any untoward medical occurrence in a subject or clinical investigation subject administered a pharmaceutical product, regardless of causal relationship with this treatment. An AE could therefore be any unfavorable and unintended sign (including an abnormal laboratory finding), symptom, or disease temporally associated with the use of a medicinal product, whether or not considered related to the medicinal product.
The Investigator was required to grade the severity or toxicity of each AE. Investigators referenced the National Cancer Institute-Common Terminology Criteria for AEs (NCI-CTCAE), Version 4.03 (publication date: 14 Jun. 2010) a descriptive terminology provided in the Manual of Procedures that can be used for AE reporting.
A general grading (severity/intensity; hereafter referred to as severity) scale was provided at the beginning of the above referenced document, and specific event grades were also provided. Only if a particular AE's severity was not specifically graded by the guidance document, then the Investigator was to use the general NCI-CTCAE definitions of Grade 1 through Grade 5 following his or her best medical judgment. The 5 general grades are: • Grade 1 or Mild • Grade 2 or Moderate • Grade 3 or Severe • Grade 4 or Life-threatening • Grade 5 or Death.
Serious Adverse Events: An SAE is any untoward medical occurrence that at any dose: • Results in death. • Is life-threatening. (Note: The term “life-threatening” refers to an event in which the subject is at risk of death at the time of the event, not an event that hypothetically might have caused death if it was more severe) • Requires inpatient hospitalization or prolongs an existing hospitalization, except in the case of hospitalizations due to protocol-defined relapses. • Results in persistent or significant disability or incapacity. • Is a congenital anomaly or birth defect. • Is otherwise considered to be medically important.

[2] = test system: B- and T-cell-mediated EAE mouse models; conditions: cited from earlier work
M1 macrophages = conditions: in vitro; cited from earlier work
[3] = Phase I Part 2: plasma pharmacokinetics Day 1 and Day 14 of once daily dosing; type: in vivo, human; conditions: for MRT: human, plasma, oral
Description: To test dose proportionality, PK parameters were analyzed graphically as AUC/dose and Cmax/dose and via a power model (PK parameter=α*dose^β) approach with log-transformed PK parameters as the dependent variable and log-transformed dose as the independent variable.

[4] = multiple-dose study Day 1, 25 mg, geometric mean
[5] = multiple-dose study Day 1, 75 mg, geometric mean
[6] = multiple-dose study Day 1, 200 mg, geometric mean
[7] = multiple-dose study Day 14, 25 mg once daily, geometric mean
[8] = multiple-dose study Day 14, 75 mg once daily, geometric mean
[9] = multiple-dose study Day 14, 200 mg once daily, geometric mean

For `C=CC(=O)N1CCC(CNc2ncnc(N)c2-c2ccc(Oc3ccccc3)cc2)CC1` [Evobrutinib, 1-(4-(((6-amino-5-(4-phenoxyphenyl)pyrimidin-4-yl)amino)methyl)piperidin-1-yl)prop-2-en-1-one], the “Deaths or additional emerging safety signals” value ([1]; 24 weeks) was “no deaths or additional emerging safety signals”, the “TEAEs of grade 4 or 5” value ([1]; human, in vivo, 24 weeks) was “no TEAEs of grade 4 or 5” and the “Hematological abnormalities, such as lymphopenia” value ([1]; in vivo) was “None of the three evobrutinib doses were associated with hematological abnormalities, such as lymphopenia”. The “Hy's Law cases among Grade 3 transaminase elevations” value ([1]; in vivo) was “no Hy's Law cases”, the “Infection rates versus placebo” value ([1]; in vivo) was “lower than those with placebo” and the “CNS inflammation, demyelination and disease severity (clinical scoring)” value [2] was “potential to reduce CNS inflammation and demyelination and ameliorate disease severity”. The Effects on macrophages (M1 macrophages) was “inhibiting the activation, differentiation and polarisation of M1 macrophages and by promoting the M2 macrophage-phenotype”, the “Dose proportionality of AUC and Cmax” value ([3]; 25-500 mg single dose, 25-200 mg once daily multiple dose) was “demonstrated following multiple dosing of 25-200 mg; also recorded: dose-proportional over a 25-500 mg single-dose range and a 25-200 mg once daily multiple-dose range” and the “Time dependency of PK” value ([3]; 14 days repeated daily dosing) was “no time dependency”. It also gave an MRT ([3]; 25 mg, multiple-dose study Day 1, 25 mg, geometric mean) of 1.66 h, an MRT ([3]; 25 mg, multiple-dose study Day 14, 25 mg once daily, geometric mean) of 1.81 h and an MRT ([3]; 75 mg, multiple-dose study Day 1, 75 mg, geometric mean) of 1.67 h. For the same molecule, the MRT ([3]; 75 mg, multiple-dose study Day 14, 75 mg once daily, geometric mean) was 1.79 h, the MRT ([3]; 200 mg, multiple-dose study Day 1, 200 mg, geometric mean) was 1.72 h and the MRT ([3]; 200 mg, multiple-dose study Day 14, 200 mg once daily, geometric mean) was 1.92 h. For the same molecule, the “AUC0−∞” value [3, 4] was 123 ng·h/mL, the Cmax [3, 4] was 99.7 ng/mL and the T1/2 [3, 4] was 1.70 h. The “AUC0−∞” value [3, 5] was 325 ng·h/mL, the CL/F [3, 5] was 3850 mL/min and the Cmax [3, 5] was 254 ng/mL. For the same molecule, the T1/2 [3, 5] was 1.86 h, the “AUC0−∞” value [3, 6] was 1110 ng·h/mL and the Cmax [3, 6] was 797 ng/mL. The T1/2 [3, 6] was 2.49 h, the “AUC0−24h” value [3, 7] was 126 ng·h/mL and the Cmax [3, 7] was 80.4 ng/mL. For the same molecule, the T1/2 [3, 7] was 1.59 h, the “AUC0−24h” value [3, 8] was 345 ng·h/mL and the Cmax [3, 8] was 252 ng/mL. For the same molecule, the T1/2 [3, 8] was 2.29 h, the “AUC0−24h” value [3, 9] was 1,210 ng * h/mL and the Cmax [3, 9] was 782 ng/mL. The T1/2 [3, 9] was 3.62 h, the “Accumulation with multiple dosing” value ([3]; once daily, 14 days) was “no accumulation with multiple dosing; also recorded: without accumulation after multiple dosing” and the “t½ after multiple dosing” value ([3]; range across 25-200 mg once daily) was 1.6 to 3.6 h.
